Assays:
Format in all cases: functional, cell-based
A 172 = experiment: Compound was evaluated for in vitro antiproliferative activity against A172 human CNS cancer cell line
Caov-3 cell line = experiment: Compound was evaluated for in vitro antiproliferative activity against CAOV-3 human ovarian cancer cell line
DLD-1 = experiment: Compound was evaluated for in vitro antiproliferative activity against DLD-1 human colon cancer cell line
[1] = tested on: KATO III stomach cancer cell line; experiment: Compound was evaluated for in vitro antiproliferative activity against KATO-III human gastric cancer cell line
L1210 = experiment: Compound was evaluated for in vitro antiproliferative activity against L1210 mouse leukemia cell line

Row | Structure (SMILES) | IC50 (A 172) | IC50 (Caov-3 cell line) | IC50 (DLD-1) | IC50 [1] | IC50 (L1210)
1 | COCOCCC1(O)C(=O)OCc2c1cc1n(c2=O)Cc2c-1nc1ccccc1c2CCNC(C)C (configuration not stated) | 12200 nM | 91 nM | 549 nM | 3270 nM | 
2 | CCOCOCCC1(O)C(=O)OCc2c1cc1n(c2=O)Cc2c-1nc1cc3c(cc1c2CCl)OCCO3 (configuration not stated) |  | 3760 nM | 3880 nM | 5920 nM | 
3 | O=C1OCc2c(cc3n(c2=O)Cc2c-3nc3cc4c(cc3c2CCl)OCCO4)C1(O)CCO (configuration not stated) | 391 nM | 10 nM | 55 nM | 135 nM | 898 nM
4 | CCC1(O)C(=O)OCc2c1cc1n(c2=O)Cc2c-1nc1ccccc1c2CCNC(C)C (configuration not stated) | 167 nM | 4 nM | 276 nM | 623 nM | 460 nM
5 | COCOCCC1(O)C(=O)OCc2c1cc1n(c2=O)Cc2cc3ccccc3nc2-1 (configuration not stated) | 2620 nM | 560 nM | 1860 nM | 320 nM | 440 nM
6 | CCC1(O)C(=O)OCc2c1cc1n(c2=O)Cc2c-1nc1cc3c(cc1c2CCl)OCCO3 (configuration not stated) | 54 nM | 87 nM | 2780 nM | 6110 nM | 14000 nM
7 | CC(C)NCCc1c2c(nc3ccccc13)-c1cc3c(c(=O)n1C2)COC(=O)C3(O)CCO (configuration not stated) | 3560 nM | 483 nM | 619 nM | 4400 nM | 6730 nM
8 | CCOCOCCC1(O)C(=O)OCc2c1cc1n(c2=O)Cc2c-1nc1ccccc1c2CCNC(C)C (configuration not stated) | 5460 nM | 24 nM | 2100 nM | 4210 nM | 14100 nM
9 | CCC1(O)C(=O)OCc2c1cc1n(c2=O)Cc2cc3ccccc3nc2-1 (configuration not stated) | 29 nM | 32 nM | 102 nM | 448 nM | 35 nM
10 | COCOCCC1(O)C(=O)OCc2c1cc1n(c2=O)Cc2c-1nc1cc3c(cc1c2CCl)OCCO3 (configuration not stated) | 29 nM | 3 nM | 108 nM | 1460 nM | 307 nM

From ChEMBL document CHEMBL1130880, “Synthesis and in vitro cytotoxicity of C(20)(RS)-camptothecin analogues modified at both B (or A) and E ring” (Bioorg Med Chem Lett, 1998)
